According to PubChem BioAssay AID2060884 (Molecular Pharmacology Branch, DTP, NCI, 2025):

Test system: NCI-H929 complex spheroids, viability % test/control
Test: Anticancer human tumor NCI-H929 cell line growth inhibition [RAS];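 note: compound exposure lasted seven days before viability was read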;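 for viability, T/C: 100% = DMSO vehicle control viability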
Details: for IC50: curve of first compound; for viability, T/C: stronger effect = lower value
Outline: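 Multi-cell-type spheroids: tumor cells plus HUVEC endothelial cells and mesenchymal stem cells. RAS-pathway inhibitors were combined with targeted agents, each dosed in half-log steps down from clinical Cmax, or from 10 microM when Cmax was unknown.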

[1] = second compound 0.0316 µM, first compound 0.00316 µM
[2] = second compound 0.0316 µM, first compound 0.01 µM
[3] = second compound 0.0316 µM, first compound 0.0316 µM
[4] = second compound 0.0316 µM, first compound 0.1 µM
[5] = second compound 0.0316 µM, first compound 0.316 µM
[6] = second compound 0.0316 µM, first compound 1 µM
[7] = second compound 0.1 µM, first compound 0.00316 µM
[8] = second compound 0.1 µM, first compound 0.01 µM
[9] = second compound 0.1 µM, first compound 0.0316 µM
[10] = second compound 0.1 µM, first compound 0.1 µM
[11] = second compound 0.1 µM, first compound 0.316 µM
[12] = second compound 0.1 µM, first compound 1 µM
[13] = second compound 0.316 µM, first compound 0.00316 µM
[14] = second compound 0.316 µM, first compound 0.01 µM
[15] = second compound 0.316 µM, first compound 0.0316 µM
[16] = second compound 0.316 µM, first compound 0.1 µM
[17] = second compound 0.316 µM, first compound 0.316 µM
[18] = second compound 0.316 µM, first compound 1 µM
[19] = second compound 1 µM, first compound 0.00316 µM
[20] = second compound 1 µM, first compound 0.01 µM
[21] = second compound 1 µM, first compound 0.0316 µM
[22] = second compound 1 µM, first compound 0.1 µM
[23] = second compound 1 µM, first compound 0.316 µM
[24] = second compound 1 µM, first compound 1 µM
[25] = second compound 3.16 µM, first compound 0.00316 µM
[26] = second compound 3.16 µM, first compound 0.01 µM
[27] = second compound 3.16 µM, first compound 0.0316 µM
[28] = second compound 3.16 µM, first compound 0.1 µM
[29] = second compound 3.16 µM, first compound 0.316 µM
[30] = second compound 3.16 µM, first compound 1 µM
[31] = second compound 10 µM, first compound 0.00316 µM
[32] = second compound 10 µM, first compound 0.01 µM
[33] = second compound 10 µM, first compound 0.0316 µM
[34] = second compound 10 µM, first compound 0.1 µM
[35] = second compound 10 µM, first compound 0.316 µM
[36] = second compound 10 µM, first compound 1 µM

Structure (SMILES): C=CC(=O)Nc1cc(Nc2nccc(-c3cn(C)c4ccccc34)n2)c(OC)cc1N(C)CCN(C)C + C#Cc1c(F)ccc2cc(O)cc(-c3ncc4c(N5CC6CCC(C5)N6)nc(OCC56CCCN5CC(F)C6)nc4c3F)c12
- IC50 (second compound 0.0316 µM): > 1000 nM
- IC50 (second compound 0.1 µM): > 1000 nM
- IC50 (second compound 0.316 µM): > 1000 nM
- IC50 (second compound 1 µM): > 1000 nM
- IC50 (second compound 3.16 µM): > 1000 nM
- IC50 (second compound 10 µM): > 1000 nM
- viability, T/C [1]: 101%
- viability, T/C [2]: 94.1%
- viability, T/C [3]: 101%
- viability, T/C [4]: 95.4%
- viability, T/C [5]: 99.7%
- viability, T/C [6]: 98.8%
- viability, T/C [7]: 96.8%
- viability, T/C [8]: 97.5%
- viability, T/C [9]: 102%
- viability, T/C [10]: 98.6%
- viability, T/C [11]: 101%
- viability, T/C [12]: 102%
- viability, T/C [13]: 98.1%
- viability, T/C [14]: 101%
- viability, T/C [15]: 103%
- viability, T/C [16]: 99.2%
- viability, T/C [17]: 104%
- viability, T/C [18]: 101%
- viability, T/C [19]: 94%
- viability, T/C [20]: 97.2%
- viability, T/C [21]: 106%
- viability, T/C [22]: 102%
- viability, T/C [23]: 102%
- viability, T/C [24]: 102%
- viability, T/C [25]: 101%
- viability, T/C [26]: 97.8%
- viability, T/C [27]: 103%
- viability, T/C [28]: 98.8%
- viability, T/C [29]: 102%
- viability, T/C [30]: 104%
- viability, T/C [31]: 94%
- viability, T/C [32]: 98.8%
- viability, T/C [33]: 94.8%
- viability, T/C [34]: 102%
- viability, T/C [35]: 99.1%
- viability, T/C [36]: 98.3%

Structure (SMILES): CCN1CCN(Cc2ccc(Nc3ncc(F)c(-c4cc(F)c5nc(C)n(C(C)C)c5c4)n3)nc2)CC1 + C#Cc1c(F)ccc2cc(O)cc(-c3ncc4c(N5CC6CCC(C5)N6)nc(OCC56CCCN5CC(F)C6)nc4c3F)c12
- IC50 (second compound 0.0316 µM): > 1000 nM
- IC50 (second compound 0.1 µM): > 1000 nM
- IC50 (second compound 0.316 µM): > 1000 nM
- IC50 (second compound 1 µM): > 1000 nM
- IC50 (second compound 3.16 µM): > 1000 nM
- IC50 (second compound 10 µM): > 1000 nM
- viability, T/C [1]: 101%
- viability, T/C [2]: 102%
- viability, T/C [3]: 108%
- viability, T/C [4]: 106%
- viability, T/C [5]: 120%
- viability, T/C [6]: 107%
- viability, T/C [7]: 92.2%
- viability, T/C [8]: 99.1%
- viability, T/C [9]: 103%
- viability, T/C [10]: 107%
- viability, T/C [11]: 118%
- viability, T/C [12]: 110%
- viability, T/C [13]: 96.6%
- viability, T/C [14]: 100%
- viability, T/C [15]: 103%
- viability, T/C [16]: 113%
- viability, T/C [17]: 120%
- viability, T/C [18]: 115%
- viability, T/C [19]: 93.2%
- viability, T/C [20]: 102%
- viability, T/C [21]: 109%
- viability, T/C [22]: 113%
- viability, T/C [23]: 117%
- viability, T/C [24]: 112%
- viability, T/C [25]: 97.8%
- viability, T/C [26]: 100%
- viability, T/C [27]: 104%
- viability, T/C [28]: 112%
- viability, T/C [29]: 120%
- viability, T/C [30]: 115%
- viability, T/C [31]: 98.5%
- viability, T/C [32]: 100%
- viability, T/C [33]: 99.2%
- viability, T/C [34]: 109%
- viability, T/C [35]: 118%
- viability, T/C [36]: 57.3%
